ChEMBL document CHEMBL1145428, “A novel arginine methyltransferase inhibitor with cellular activity” (Bioorg Med Chem Lett, 2007)
Activity calls are given as the source filed them. The calls are words filed in the database; no cut-off is given here.

Columns and labels:
[1] = molecular target: Protein arginine N-methyltransferase 1 (Homo sapiens) (UniProt Q99873); assay: Inhibition of human PRMT1 at 40 uM by TRF assay; parameters: scale not given: the % may be the effect or the level left
RmtA = RmtA (Emericella nidulans, UniProt Q5VLE3); assay: Inhibition of Aspergillus nidulans RmtA by TRF assay
[2] = molecular target: RmtA (Emericella nidulans) (UniProt Q5VLE3); assay: Inhibition of Aspergillus nidulans RmtA at 40 uM by TRF assay; parameters: scale not given: the % may be the effect or the level left
[3] = molecular target: T1, Histone-lysine N-methyltransferase SETD7 (Homo sapiens) (UniProt Q8WTS6); assay: Inhibition of lysine methyltransferase SET7/9 at 50 uM
T1 sequence (whole entry): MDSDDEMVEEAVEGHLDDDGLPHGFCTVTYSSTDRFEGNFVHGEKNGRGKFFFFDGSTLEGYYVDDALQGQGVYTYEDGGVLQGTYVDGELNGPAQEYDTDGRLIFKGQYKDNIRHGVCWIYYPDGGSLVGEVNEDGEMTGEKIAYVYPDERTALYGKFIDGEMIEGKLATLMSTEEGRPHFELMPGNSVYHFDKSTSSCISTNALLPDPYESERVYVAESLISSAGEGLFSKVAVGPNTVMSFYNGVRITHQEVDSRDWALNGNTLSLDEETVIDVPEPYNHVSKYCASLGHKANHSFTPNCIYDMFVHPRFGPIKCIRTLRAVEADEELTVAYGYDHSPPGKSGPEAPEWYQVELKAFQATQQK

Sequence of Protein arginine N-methyltransferase 1 (Homo sapiens) (Q99873 whole entry, looked up): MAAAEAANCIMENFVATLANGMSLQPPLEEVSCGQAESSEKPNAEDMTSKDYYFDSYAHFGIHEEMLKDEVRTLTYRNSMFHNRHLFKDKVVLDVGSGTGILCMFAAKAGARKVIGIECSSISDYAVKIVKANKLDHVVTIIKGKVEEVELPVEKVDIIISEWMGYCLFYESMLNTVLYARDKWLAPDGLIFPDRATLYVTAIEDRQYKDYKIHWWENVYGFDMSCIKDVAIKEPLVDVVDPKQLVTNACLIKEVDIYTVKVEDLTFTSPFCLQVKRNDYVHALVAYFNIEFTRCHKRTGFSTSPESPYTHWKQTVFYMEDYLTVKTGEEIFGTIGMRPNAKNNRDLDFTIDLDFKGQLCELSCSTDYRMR
Sequence of RmtA (Emericella nidulans) (Q5VLE3 as listed by the source): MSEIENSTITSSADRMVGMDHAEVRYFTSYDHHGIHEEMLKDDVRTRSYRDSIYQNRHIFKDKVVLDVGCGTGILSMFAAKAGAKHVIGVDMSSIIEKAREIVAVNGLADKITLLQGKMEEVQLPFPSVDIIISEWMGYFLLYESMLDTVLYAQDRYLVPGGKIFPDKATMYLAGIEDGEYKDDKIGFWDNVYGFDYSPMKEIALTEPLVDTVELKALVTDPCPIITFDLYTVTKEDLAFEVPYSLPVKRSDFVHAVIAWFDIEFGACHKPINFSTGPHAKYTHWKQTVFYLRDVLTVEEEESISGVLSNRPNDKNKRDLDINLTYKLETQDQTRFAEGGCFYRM
Sequence of RmtA (Q5VLE3 whole entry): as the sequence (Q5VLE3 as listed by the source) above

| Compound | Activity [1] [%] | IC50 (RmtA) [µM] | Activity [2] [%] | Activity [3] |
| --- | --- | --- | --- | --- |
| CC(S)C(=O)NCCCN (stereo not given) | < 20 | 46.8 | – | – |
| O=C(CSC1c2ccccc2Oc2ccccc21)N1CCCCC1 | < 20 | – | < 20 | – |
| CC(SC1c2ccccc2Oc2ccccc21)C(=O)NCCOCCOCCNC(=O)C(C)SC1c2ccccc2Oc2ccccc21 (stereo not given) | < 20 | – | < 20 | – |
| CC(SC1c2ccccc2Sc2ccccc21)C(=O)N1CCCC1 (stereo not given) | < 20 | – | < 20 | – |
| CC(SC1c2ccccc2Oc2ccccc21)C(=O)NCCNC(=O)C(C)SC1c2ccccc2Oc2ccccc21 (stereo not given) | – | 46.2 | – | inactive |
